In PubChem BioAssay (NCI) one finds TGI data, which are given here for 6 compounds.

Holding throughout (experiment): NCI-60 cell line screen, 48 h
Assay [1] concerns SF-539 CNS.
The subject of assay [2] is NCI-H23 lung.
Assay [3] deals with HT29 colon.
Assay [4] has as its system SN12C renal.
Assay [5] concerns HS 578T breast.
Assay [6] concerns KM12 colon.
Assay [7] relates to ACHN renal.
The test system of assay [8] is NCI-H522 lung.
Assay [9] relates to SW-620 colon.
Assay [10] deals with MCF7 breast.
For assay [11], the system named is TK-10 renal.

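Compound exposure: 48 hours, 5 concentrations, 96-well plates. TGI denotes the concentration required for complete inhibition of growth.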 A value given as a limit tells only on which side of the number the result lay.

`C/C(=N/NC(=S)Nc1ccccc1Cl)c1cccc(/C(C)=N\NC(=S)Nc2ccccc2Cl)n1`: the TGI in assay [1], in [2], in assay [3], in assay [4], in assay [5] and in [6] was greater than 100 µM in each case. The TGI is greater than 100 µM in assay [7]; greater than 100 µM in assay [8]; greater than 100 µM in [9]; 93.7 µM in assay [10]; greater than 100 µM in assay [11].

In the case of `CCC1C(c2cccc(OC)c2O)c2cc3c(cc2OC1N1CCCC1)OCO3` (stereo unspecified), the TGI in assay [1] was 27 µM; in assay [2], greater than 100 µM; in assay [3], 37.5 µM; in assay [4] it was 38.3 µM; in assay [5] it was 29.9 µM; in [6], 50.8 µM. Besides, the TGI is 84.3 µM in assay [7]; 35.4 µM in assay [8]; 58.8 µM in [9]; greater than 100 µM in [10]; 82.1 µM in assay [11].

For the compound `CN(C)c1ccc(/C=C2\N=C(NN)NC2=O)cc1`, the TGI is 96.6 µM in assay [1]; greater than 100 µM in assay [2]; 98.9 µM in assay [3]; greater than 100 µM in assay [4]; greater than 100 µM in assay [5]; greater than 100 µM in assay [6]. The TGI in assay [7], in assay [8], in [9], in assay [10] and in assay [11] was greater than 100 µM in each case.

`COc1ccc2cc1Oc1ccc(cc1)C(Sc1ccccc1)CCOC(=O)CC2` (stereo unspecified): the TGI in assay [1], in assay [2], in assay [3], in [4], in assay [5] and in assay [6] was greater than 100 µM throughout. For the same compound, the TGI in assay [7], in [8], in assay [9], in assay [10] and in assay [11] was greater than 100 µM each time.

As for `O=C1CSC(/C(=C\c2ccc(Cl)cc2)c2nc3ccccc3[nH]2)=N1`, the TGI turned out to be 2.06 µM in assay [1]; 30.7 µM in assay [2]; 46.5 µM in assay [3]; 34.2 µM in assay [4]; 53.2 µM in [5]; 28.5 µM in assay [6]. For the same compound, the TGI was determined as 19 µM in assay [7]; 12.6 µM in assay [8]; 35.6 µM in assay [9]; 28.7 µM in assay [10]; 24.8 µM in [11].

Regarding `Cc1ccc(OCC2OC(n3cnc4c(N(C)C)nc(Br)nc43)CC2Oc2ccc(C)cc2)cc1` (stereo unspecified), the TGI in assay [1], in assay [2], in assay [3], in [4], in assay [5] and in [6] was greater than 100 µM in each case. Further, the TGI in assay [7], in assay [8], in assay [9], in [10] and in [11] was greater than 100 µM throughout.
